Experimental data: patent US6005007A, “Retinoids, methods for their production and use” (priority 1997, dated 1999)
pEC50, pKd: −log10 of the molar value.

Assays:
RARα [1] = target: T1, RARα (Homo sapiens, UniProt P10276); assay: Receptor binding, RARα; settings: tritiated retinoid competition
T1 sequence (P10276 1-462): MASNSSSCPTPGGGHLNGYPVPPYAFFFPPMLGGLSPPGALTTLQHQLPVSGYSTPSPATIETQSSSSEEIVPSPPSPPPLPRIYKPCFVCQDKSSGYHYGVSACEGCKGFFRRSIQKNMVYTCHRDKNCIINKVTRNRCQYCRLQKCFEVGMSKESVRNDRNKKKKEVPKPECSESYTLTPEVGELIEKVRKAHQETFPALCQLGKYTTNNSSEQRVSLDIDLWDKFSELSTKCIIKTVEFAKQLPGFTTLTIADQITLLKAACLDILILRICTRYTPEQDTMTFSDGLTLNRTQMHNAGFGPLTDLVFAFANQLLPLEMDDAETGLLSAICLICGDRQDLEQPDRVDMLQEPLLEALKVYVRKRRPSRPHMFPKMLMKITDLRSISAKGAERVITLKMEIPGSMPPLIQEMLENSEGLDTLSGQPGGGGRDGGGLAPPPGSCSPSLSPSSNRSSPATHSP

RARβ [2] = target: T2, RARβ (Homo sapiens, UniProt P10826); assay: Receptor binding, RARβ; settings: tritiated retinoid competition
T2 sequence (P10826 1-448 isoform P10826-2): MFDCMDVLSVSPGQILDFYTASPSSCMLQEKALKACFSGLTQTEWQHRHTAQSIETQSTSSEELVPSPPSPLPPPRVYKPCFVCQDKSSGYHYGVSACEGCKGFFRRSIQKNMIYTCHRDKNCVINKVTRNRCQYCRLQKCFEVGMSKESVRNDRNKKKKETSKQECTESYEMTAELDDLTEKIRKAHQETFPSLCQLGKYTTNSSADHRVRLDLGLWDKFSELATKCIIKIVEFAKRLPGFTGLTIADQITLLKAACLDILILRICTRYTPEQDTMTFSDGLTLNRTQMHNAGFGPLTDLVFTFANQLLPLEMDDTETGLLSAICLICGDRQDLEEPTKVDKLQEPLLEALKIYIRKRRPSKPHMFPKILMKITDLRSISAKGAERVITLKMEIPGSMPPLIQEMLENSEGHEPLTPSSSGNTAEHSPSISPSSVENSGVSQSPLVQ

RXRα = target: T3, RXRα (Homo sapiens, UniProt P19793); assay: Receptor binding, RXRα; settings: tritiated retinoid competition
T3 sequence (P19793 1-462): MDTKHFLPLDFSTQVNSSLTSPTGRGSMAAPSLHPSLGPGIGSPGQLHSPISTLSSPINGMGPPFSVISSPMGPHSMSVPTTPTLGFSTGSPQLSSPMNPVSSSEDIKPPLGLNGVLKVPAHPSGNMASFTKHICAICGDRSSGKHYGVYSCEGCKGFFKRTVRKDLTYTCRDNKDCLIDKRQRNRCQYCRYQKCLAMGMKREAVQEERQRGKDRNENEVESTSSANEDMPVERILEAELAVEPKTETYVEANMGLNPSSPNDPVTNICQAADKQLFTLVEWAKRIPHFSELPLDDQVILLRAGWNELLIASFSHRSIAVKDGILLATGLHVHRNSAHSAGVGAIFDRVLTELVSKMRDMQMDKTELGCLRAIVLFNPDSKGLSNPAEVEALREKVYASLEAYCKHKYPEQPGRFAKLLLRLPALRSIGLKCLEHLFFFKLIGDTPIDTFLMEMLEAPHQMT

RXRγ = target: T4, RXRγ (Mus musculus, UniProt P28705); assay: Receptor binding, RXRγ; settings: tritiated retinoid competition
T4 construct: expressed in transfected cells; host or cells: CV-1 (African green monkey kidney fibroblasts)
T4 sequence (P28705 1-463): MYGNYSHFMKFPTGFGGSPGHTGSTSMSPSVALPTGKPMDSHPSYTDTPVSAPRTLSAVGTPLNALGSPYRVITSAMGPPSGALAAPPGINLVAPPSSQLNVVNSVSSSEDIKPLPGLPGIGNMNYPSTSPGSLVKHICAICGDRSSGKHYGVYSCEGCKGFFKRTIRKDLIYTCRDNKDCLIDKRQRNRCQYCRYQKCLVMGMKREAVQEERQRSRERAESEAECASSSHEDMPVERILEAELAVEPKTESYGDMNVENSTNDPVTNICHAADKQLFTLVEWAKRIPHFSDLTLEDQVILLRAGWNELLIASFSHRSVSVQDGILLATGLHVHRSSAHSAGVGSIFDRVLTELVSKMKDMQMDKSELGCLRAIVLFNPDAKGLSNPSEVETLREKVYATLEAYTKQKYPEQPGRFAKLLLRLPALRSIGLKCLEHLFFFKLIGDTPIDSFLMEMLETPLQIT

RARα [3] = target: T1, RARα; assay: Co-transfection assay, RARα agonist activity; type: cell-based; parameters: expressed in transfected cells; host or cells: CV-1 (African green monkey kidney fibroblasts); settings: CV-1 cells, luciferase reporter, read-out: RARα Pot
RARβ [4] = target: T2, RARβ; assay: Co-transfection assay, RARβ agonist activity; type: cell-based; parameters: expressed in transfected cells; host or cells: CV-1 (African green monkey kidney fibroblasts); settings: CV-1 cells, luciferase reporter, read-out: RARβ Pot
RARγ = target: T5, RARγ (Homo sapiens, UniProt P13631); assay: Co-transfection assay, RARγ agonist activity; type: cell-based; parameters: expressed in transfected cells; host or cells: CV-1 (African green monkey kidney fibroblasts); settings: CV-1 cells, luciferase reporter, read-out: RARγ Pot
T5 sequence (P13631 1-454): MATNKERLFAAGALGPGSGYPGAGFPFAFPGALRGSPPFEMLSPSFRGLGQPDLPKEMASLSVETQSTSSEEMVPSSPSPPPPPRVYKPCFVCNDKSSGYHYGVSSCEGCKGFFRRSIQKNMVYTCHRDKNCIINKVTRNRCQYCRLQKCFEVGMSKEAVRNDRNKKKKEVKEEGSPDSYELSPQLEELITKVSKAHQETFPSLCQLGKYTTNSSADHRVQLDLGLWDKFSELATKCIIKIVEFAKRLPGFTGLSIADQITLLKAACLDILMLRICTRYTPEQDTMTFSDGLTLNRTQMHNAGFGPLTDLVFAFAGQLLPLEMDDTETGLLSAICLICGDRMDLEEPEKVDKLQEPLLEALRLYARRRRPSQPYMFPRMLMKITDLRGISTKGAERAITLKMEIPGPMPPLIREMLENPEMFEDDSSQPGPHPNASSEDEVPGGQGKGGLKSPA

pKd (RARα [1])	pKd (RARβ [2])	pKd (RXRα)	pKd (RXRγ)	pEC50 (RARα [3])	pEC50 (RARβ [4])	pEC50 (RARγ)	Structure (SMILES)
6.19	6.33	8.70	8.10	7.23	7.77	7.62	CC(/C=C/CC1(c2ccc3c(c2)C(C)(C)CCC3(C)C)CC1)=C\C(=O)O [Compound 101, (2E, 4E)-6-[1-(5,5,8,8-Tetramethyl-5,6,7,8-tetrahydronaphtha-len-2-yl)cyclopropanyl]-3-methyl hexadienoic acid]
< 5.30	< 5.30	8.22	7.66	< 5.00	< 5.00	< 5.00	CC(/C=C/CC1(c2cc(C(C)(C)C)cc3c2CCC3(C)C)CC1)=C\C(=O)O [Compound 107, (2E, 4E)-6-[1-(6-t-butyl-1,1-dimethyl-indan-4-yl)-cyclopropyl]-3-methyl hexadienoic acid]
< 5.30	< 5.30	7.39	6.89	< 5.00	< 5.00	< 5.00	CC(/C=C/CC1(c2ccc3c(c2)C(C)(C)CCC3(C)C)CCCC1)=C\C(=O)O [Compound 108, (2E, 4E)-6-[(5,5,8,8-Tetramethyl-5,6,7,8-tetrahydronaphtha-len-2-yl)cyclopentane-1-yl]-3-methyl hexadienoic acid]
